How the values were obtained:
[1] = Parent ionizable lipid remaining in liver at 6 h after luciferase mRNA LNP (LC-MS); type: in vivo; conditions: 6 h after IV 0.5 mg/kg Luciferase mRNA LNP
Protocol: Liver tissues were treated with PBS and homogenized with a FastPrep machine, 3 cycles of 5 m/s×15 s. Homogenates from the PBS-treated control animals was pooled and used for standard curve preparation. Samples were extracted into a deep well plate with 250 μL of an internal suitability standard. Plates were centrifuged for 15 min at 4° C. and 2000 rpm. Analysis was performed using an Agilent 6520 QTOF coupled to an Agilent 1290 UHPLC, using reverse-phase LC separation. Quantitation of the ionizable lipid was by MS/MS against a calibration curve spiked into appropriately matched blank matrix. Calibration used a similar class of synthetic lipid as internal standard.
At 6 h post-dose, some treatment groups reported lower levels of novel ionizable lipid in mouse liver compared to the benchmark (Tables 16-18).

[2] = tested on: luciferase activity in the liver; test: Luciferase activity in liver after intravenous luciferase mRNA LNP; type: in vivo; conditions: 0.5 mg/kg IV, 6 h post-IV administration, BALB/c mice (n = 4)
Protocol: Frozen aliquots of liver were thawed and homogenized in 1 mL of 1×CCLR (Cell Culture Lysis Reagent) using a FastPrep® homogenizer. The homogenate was then centrifuged at 16,000 RPM for 10 minutes at 4° C. Twenty (20) μL of the supernatant was loaded into a 96-well white plate and luminescence measured following addition of luciferase reagent (Promega Luciferase Assay System). Luciferase activity was determined by comparing luminescence of the homogenized samples to luciferase protein standards. To account for any quenching of luminescence by components in the liver homogenate, luciferase was added to the liver homogenates of untreated animals and the resulting luminescence measured. The resulting quench factor was applied to all samples to obtain the corrected luciferase activity, and normalized per unit mass of tissue analyzed.

[3] = Particle characteristics of LNPs containing luciferase mRNA and novel ionizable lipids; type: physicochemical; conditions: luciferase mRNA LNP 1.6:54.6:32.8:10.9
Protocol: The lipid solution contains 4 components: a PEG-conjugated lipid, an ionizable lipid, cholesterol, and a phospholipid (e.g., DSPC). Lipid stocks were prepared using the lipid identities and molar ratios as described, to achieve a total concentration of ˜7 mg/mL in 100% ethanol. Firefly luciferase mRNA (TriLink Biotechnologies, L-7202) or ornithine transcarbamylase (OTC) mRNA (TriLink Biotechnologies, custom designed) was diluted in acetate, pH 5 buffer and nuclease free water to achieve a target concentration of 0.366 mg/mL mRNA in 100 mM acetate, pH 5. Equal volumes of the lipid and nucleic acid solutions were blended at a flow rate of 400 mL/min through a T-connector, and diluted with ˜4 volumes of PBS, pH 7.4. Formulations were placed in Slide-A-Lyzer dialysis units (MWCO 10,000) and dialyzed overnight against 10 mM Tris, 500 mM NaCl, pH 8 buffer. Following dialysis, the formulations were concentrated to ˜0.6 mg/mL using VivaSpin concentrator units (MWCO 100,000) and dialyzed overnight against 5 mM Tris, 10% sucrose, pH 8 buffer. Formulations were filtered through a 0.2 μm syringe filter (PES membrane). Nucleic acid concentration was determined by the RiboGreen assay. Particle size and polydispersity were determined using a Malvern Nano Series Zetasizer.
LNP formulations containing novel ionizable lipids all produced stable particles with high encapsulation efficiency (Tables 1-7).

[4] = Table 16, female BALB/c mice (n = 4)
[5] = Table 18, female BALB/c mice (n = 4)

Structure (SMILES): CCCCCCCCCCC(CCCCC(=O)OCc1cc(CCCCCC)cc(CCCCCC)c1)N(CCCN(C)C)C(=O)C(CCCCCC)CCCCCCCC (stereo not shown) [Compound 62, 3,5-Dihexylbenzyl 6-(N-(3-(dimethylamino)propyl)-2-hexyldecanamido)hexadecanoate]
- Parent ionizable lipid remaining in liver, Average [1, 4]: 20.17 nmol/g liver
- Luc Activity ([2]; Table 10): 7.84E+06 pg/g liver
- Final Product % EE ([3]; Table 3): 98%
- Final Product PDI ([3]; Table 3): 0.08
- Final Product Z-avg ([3]; Table 3): 67 nm

Structure (SMILES): CCCCCCCCCCON(C(=O)CCCN(C)C)C(CCCCCCCCC)CCCCCCC(F)C(=O)OCCC(CCCCC)CCCCC (stereo not shown) [Compound 38, 3-pentyloctyl 9-[N-(decyloxy)-4-(dimethylamino)butanamido]-2-fluorooctadecanoate]
- Parent ionizable lipid remaining in liver, Average [1, 5]: 3.14 nmol/g liver
- Luc Activity ([2]; Table 14): 2.13E+07 pg/g liver
- Final Product % EE ([3]; Table 7): 98%
- Final Product PDI ([3]; Table 7): 0.17
- Final Product Z-avg ([3]; Table 7): 65 nm

Structure (SMILES): CCCCCCCCCCCCCOC(=O)CCCCC(CCCCCCCCCC)N(CCN(C)C)C(=O)CCCCCCC(=O)OCC(CCCC)CCCCCC (stereo not shown) [Compound 24, Tridecyl 6-(8-((2-butyloctyl)oxy)-N-(2-(dimethylamino)ethyl)-8-oxooctanamido)-hexadecanoate]
- Parent ionizable lipid remaining in liver, Average [1, 4]: 35.16 nmol/g liver
- Luc Activity ([2]; Table 10): 3.98E+06 pg/g liver
- Final Product % EE ([3]; Table 3): 96%
- Final Product PDI ([3]; Table 3): 0.08
- Final Product Z-avg ([3]; Table 3): 72 nm

Structure (SMILES): CCCCCCCCCCC(CCCCCCCC(=O)OCC(CCCCCC)CCCCCCCC)N(CCCCCCCCC(=O)OCC(CCCCCC)CCCCCCCC)C(=O)CCCCN(C)C (stereo not shown) [Compound 72, 2-Hexyldecyl 9-(5-(dimethylamino)-N-(9-((2-hexyldecyl)oxy)-9-oxononyl)pentanamido)-nonadecanoate]
- Parent ionizable lipid remaining in liver, Average ([1]; Table 17, female mice (n = 4)): 47.56 nmol/g liver
- Luc Activity ([2]; Table 13): 2.26E+07 pg/g liver
- Final Product % EE ([3]; Table 6): 99%
- Final Product PDI ([3]; Table 6): 0.00
- Final Product Z-avg ([3]; Table 6): 79 nm

Structure (SMILES): CCCCCCCCCCC(CCCCCCCC(=O)OCC(CCCCCC)CCCCCCCC)N(CCCCCCCC(=O)OCC(CCCCCC)CCCCCCCC)C(=O)CCCCN(C)C (stereo not shown) [Compound 74, 2-Hexyldecyl 9-(5-(dimethylamino)-N-(8-((2-hexyldecyl)oxy)-8-oxooctyl)-pentanamido)-nonadecanoate]
- Parent ionizable lipid remaining in liver, Average [1, 5]: 17.92 nmol/g liver
- Luc Activity ([2]; Table 14): 6.77E+07 pg/g liver
- Final Product % EE ([3]; Table 7): 99%
- Final Product PDI ([3]; Table 7): 0.05
- Final Product Z-avg ([3]; Table 7): 89 nm

Structure (SMILES): CCCCCCCCCCC(CCCCCCC(=O)OCC(CCCCCC)CCCCCCCC)N(CCCN(C)C)C(=O)CCCCCCC(=O)OCCC(CCCCCCC)CCCCCCC (stereo not shown) [Compound 85]
- Parent ionizable lipid remaining in liver, Average ([1]; Table 17, female mice (n = 4)): 37.66 nmol/g liver
- Luc Activity ([2]; Table 13): 4.79E+07 pg/g liver

Structure (SMILES): CCCCCCCCCCON(C(=O)CCCCN(C)C)C(CCCCCCCCCC)CCCCCCC(=O)OCC(CCCCCC)CCCCCCCC (stereo not shown) [Compound 45]
- Parent ionizable lipid remaining in liver, Average ([1]; Table 17, female mice (n = 4)): 36.39 nmol/g liver
- Luc Activity ([2]; Table 13): 8.00E+07 pg/g liver

Structure (SMILES): CCCCCCCCCCC(CCCCCCC(=O)OCCC(CCCCC)CCCCC)N(CCCCCCCCC(=O)OCCC(CCCCC)CCCCC)C(=O)CCCCN(C)C (stereo not shown) [Compound 75]
- Parent ionizable lipid remaining in liver, Average [1, 5]: 20.44 nmol/g liver
- Luc Activity ([2]; Table 14): 2.58E+07 pg/g liver

Structure (SMILES): CCCCCCCCCCC(CCCCCCC(=O)OCC(CCCCCC)CCCCCCCC)N(OCCCCCCCCC)C(=O)CCCN(C)C (stereo not shown) [Compound 46]
- Parent ionizable lipid remaining in liver, Average ([1]; Table 17, female mice (n = 4)): 47.63 nmol/g liver
- Luc Activity ([2]; Table 13): 1.08E+08 pg/g liver

Structure (SMILES): CCCCCCCCCCC(CCCCCCC(=O)OCCC(CCCCC)CCCCC)N(CCCCCC(F)C(=O)OCCC(CCCCC)CCCCC)C(=O)CCCN(C)C (stereo not shown) [Compound 86]
- Parent ionizable lipid remaining in liver, Average [1, 5]: 12.79 nmol/g liver
- Luc Activity ([2]; Table 14): 1.21E+07 pg/g liver

Structure (SMILES): CCCCCCCCCCC(CCCCCCC(=O)OCC(CCCCCC)CCCCCCCC)N(CCCN(C)C)C(=O)CCCCCCC(=O)OCCC(CCCCCC)CCCCCC (stereo not shown) [Compound 84]
- Parent ionizable lipid remaining in liver, Average ([1]; Table 17, female mice (n = 4)): 38.96 nmol/g liver
- Luc Activity ([2]; Table 13): 6.26E+07 pg/g liver
